Measurements taken from patent publication US20260191998A1, “INDOLE PHTHALOCYANINE COMPOUND, PREPARATION METHOD THEREFOR, AND USE THEREOF IN TUMOR DIAGNOSIS IMAGING” (JIANGSU YAHONG MEDITECH CO., LTD., priority 2022, published 2026).
Counter-ions that a name gives are not always drawn.

How the values were obtained:
[1] = UV-VIS absorption spectra (optical property test); type: physicochemical; details: 10 μM, DMSO solution; for Absorbance × 10^4: at maximum absorption peak
Method: The UV-VIS absorption spectra of the compounds (10 μM, DMSO solution) were detected using Shimadzu UV2600 spectrophotometer, and the maximum absorption peak and absorbance of each compound were obtained.

[2] = test system: human bladder cancer cell line UM-UC-3; assay: In vitro imaging effect test with addition of BSP, UM-UC-3; type: cell-based; details: 250 μM BSP, compound 1-20 μM with surfactin 1:5, 30 minutes
Method: UM-UC-3 (1.5×10^4/well) were cultured in EMEM medium (containing 10% fetal bovine serum (FBS) and 1% antibiotics (100 U/mL penicillin and 100 U/mL streptomycin)) and seeded in a 96-well plate in advance. The plate was cultured in a 5% CO2 cell culture incubator at 37° C. overnight. The following day, the culture medium was sucked away, and 250 μM of BSP was added to the test wells and preconditioned for 10 minutes, followed by addition of the culture medium containing an appropriate concentration (1-20 μM) of the compound and surfactin (the molar ratio of the test compound to the surfactin being 1:5) with or without 250 μM of BSP, and then incubated for 30 minutes. The cells were rinsed three times with PBS solution, and the near-infrared fluorescence intensity in the bladder cancer cells was observed using an integrated fluorescence microscopic imaging system from Keyence. The conditions for near-infrared photography were Ex=775/50 nm and Em=845/55 nm.

Structure (SMILES) | Absorption peak [1] | Absorbance × 10^4 [1] | Uptake by UM-UC-3 with or without BSP [2]
CC[N+]1=C(/C=C/C2=C(Cl)C(=C/C=C3/N(Cc4ccc(C(=O)Oc5ccccc5)cc4)c4ccccc4C3(C)C)/CCC2)C(C)(C)c2ccccc21 [Example 6, 2-((E)-2-((E)-2-chloro-3-(2-((E)-3,3-dimethyl-1-(4-(phenoxycarbonyl)bromo)indolin-2-ylidene)ethenyl)cyclohex-1-en-1-yl)ethenyl)-1-ethyl-3,3-dimethyl-3H-indol-1-ium Chloride] | 795 nm | 1.8 | may be weakened or enhanced by BSP
CC[N+]1=C(/C=C/C2=C(Cl)C(=C/C=C3/N(CCCCCC(=O)Oc4ccccc4)c4ccc5ccccc5c4C3(C)C)/CCC2)C(C)(C)c2c1ccc1ccccc21 [Example 2] | 833.5 nm | 2.09 | may be weakened or enhanced by BSP
CC[N+]1=C(/C=C/C2=C(Cl)C(=C/C=C3/N(CCCCCC(=O)Oc4ccccc4)c4ccccc4C3(C)C)/CCC2)C(C)(C)c2ccccc21 [Example 12a, 2-((E)-2-((E)-2-chloro-3-(2-((E)-3,3-dimethyl-1-(6-oxo-6-phenoxyhexyl)indolin-2-ylidene)ethenyl)cyclohex-1-en-1-yl)ethenyl)-1-ethyl-3,3-dimethyl-3H-indol-1-ium chloride, reference compound] |  |  | may be weakened or enhanced by BSP
COc1ccc2c(c1)C(C)(C)C(/C=C/C1=C(Cl)C(=C/C=C3/N(CCCCCC(=O)Oc4ccccc4)c4ccc(OC)cc4C3(C)C)/CCC1)=[N+]2C [Example 47, 2-((E)-2-((E)-2-chloro-3-(2-((E)-5-methoxy-3,3-dimethyl-1-(6-oxo-6-phenoxyhexyl)indolin-2-ylidene)ethenyl)cyclohex-1-en-1-yl)ethenyl)-5-methoxy-1,3,3-trimethyl-3H-indol-1-ium] |  | 2 | 
CCN1/C(=C/C=C2\C[N+](C)(C)CC(/C=C/C3=[N+](CC)c4ccccc4C3(C)C)=C2Sc2ccccc2)C(C)(C)c2ccccc21.Cl [Example 107] | 778.5 nm | 2.028 | 
CC1(C)C(/C=C/C2=C(Cl)C(=C/C=C3/N(CCC(=O)O)c4ccccc4C3(C)C)/C[N+](C)(C)C2)=[N+](CCC(=O)O)c2ccccc21 [Example 17, 1-(2-carboxyethyl)-2-((E)-2-((E)-5-(2-((E)-1-(2-carboxyethyl)-3,3-dimethylindolin-2-ylidene)ethenyl)-4-chloro-1,1-dimethyl-1,2,5,6-tetrahydropyridin-1-ium-3-yl)ethenyl)-3,3-dimethyl-3H-indol-1-ium Ditrifluoroacetate] | 766 nm | 0.88 | 
CC[N+]1=C(/C=C/C2=C(Cl)C(=C/C=C3/N(CCOCCCCCC(=O)Oc4ccccc4)c4ccccc4C3(C)C)/CCC2)C(C)(C)c2ccccc21 [Example 35, 2-((E)-2-((E)-2-chloro-3-(2-((E)-3,3-dimethyl-1-(2-((6-oxo-6-phenoxyhexyl)oxy)ethyl)indolin-2-ylidene)ethenyl)cyclohex-1-en-1-yl)ethenyl)-1-ethyl-3,3-dimethyl-3H-indol-1-ium 2,2,2-trifluoroacetate] | 794.5 nm | 2.21 | 
C[n+]1cccc2c1N=C(/C=C/C1=C(Cl)C(=C/C=C3/N(CCCCCC(=O)Oc4ccccc4)c4ccccc4C3(C)C)/CCC1)C2(C)C [Example 53, 2-((E)-2-((E)-2-chloro-3-(2-((E)-3,3-dimethyl-1-(6-oxo-6-phenoxyhexyl)indolin-2-ylidene)ethenyl)cyclohex-1-en-1-yl)ethenyl)-3,3,7-trimethyl-3H-pyrrolo[2,3-b]pyridin-7-ium 2,2,2-trifluoroacetate] |  | 0.6 | 
CC[N+]1=C(/C=C/C2=C(Cl)C(=C/C=C3/N(CCOCCCCC(=O)Oc4ccccc4)c4ccccc4C3(C)C)/CCC2)C(C)(C)c2ccccc21 [Example 37A, 2-((E)-2-((E)-2-chloro-3-(2-((E)-3,3-dimethyl-1-(2-((5-oxo-5-phenoxypentyl)oxy)ethyl)indolin-2-ylidene)ethenyl)cyclohex-1-en-1-yl)ethenyl)-1-ethyl-3,3-dimethyl-3H-indol-1-ium 2,2,2-trifluoroacetate] | 794.5 nm | 2.118 | 
CC[N+]1=C(/C=C/C2=C(OC)C(=C/C=C3/N(CCCCCC(=O)Oc4ccccc4)c4ccccc4C3(C)C)/CCC2)C(C)(C)c2ccccc21 [Example 104] | 781.5 nm | 2.054 | 
CC[N+]1=C(/C=C/C2=C(Cl)C(=C/C=C3/N(CCCCCC(=O)Oc4ccccc4)c4ccc5ccccc5c4C3(C)C)/CC2)C(C)(C)c2c1ccc1ccccc21 [Example 1A, 2-((E)-2-((E)-2-chloro-3-((E)-2-(1,1-dimethyl-3-(6-oxo-6-phenoxyhexyl)-1,3-dihydro-2H-benzo[e]indol-2-ylidene)ethenyl)cyclopent-1-en-1-yl)ethenyl)-3-ethyl-1,1-dimethyl-1H-benzo[e]indol-3-ium Chloride] | 860 nm | 2.82 | 
CC1(C)C(/C=C/C2=C(Cl)C(=C/C=C3/N(CCCCCC(=O)O)c4ccccc4C3(C)C)/CCC2)=[N+](CCCCCC(=O)O)c2ccccc21 [Example 85B] | 796.5 nm | 1.397 | 
CC[N+]1=C(/C=C/C2=C(Cl)C(=C/C=C3/N(CCCCCC(=O)Oc4ccccc4)c4ccccc4C3(C)C)/CC2)C(C)(C)c2ccccc21 [Example 4, 2-((E)-2-((E)-2-chloro-3-(2-((E)-3,3-dimethyl-1-(6-oxo-6-phenoxyhexyl)indolin-2-ylidene)ethenyl)cyclopent-1-en-1-yl)ethenyl)-1-ethyl-3,3-dimethyl-3H-indol-1-ium Chloride] | 821 nm | 2.36 | may be weakened or enhanced by BSP
CCN1/C(=C/C=C2\CCCC(/C=C/C3=[N+](CC)c4ccccc4C3(C)C)=C2Sc2ccccc2)C(C)(C)c2ccccc21.[Cl-] [Example 108] | 805.5 nm | 1.752 | 
CC1(C)C(/C=C/C2=C(Cl)C(=C/C=C3/N(CCCCCC(=O)Oc4ccccc4)c4ccccc4C3(C)C)/CCC2)=[N+](CCO)c2ccccc21 [Example 48, 2-((E)-2-((E)-2-chloro-3-(2-((E)-3,3-dimethyl-1-(6-oxo-6-phenoxyhexyl)indolin-2-ylidene)ethenyl)cyclohex-1-en-1-yl)ethenyl)-1-(2-hydroxyethyl)-3,3-dimethyl-3H-indol-1-ium Formate] |  | 2.02 | 
CC[N+]1=C(/C=C/C2=C(Cl)C(=C/C=C3/N(CCOCCC(=O)O)c4ccccc4C3(C)C)/CCC2)C(C)(C)c2cc(C(=O)O)ccc21.[Cl-] [Example 91] |  | 0.46 | 
CC[N+]1=C(/C=C/C2=C(Cl)C(=C/C=C3/N(CCCCCC(=O)NCCCCCNC(=O)CCCCCN4/C(=C/C=C5\CCCC(/C=C/C6=[N+](CC)c7ccccc7C6(C)C)=C5Cl)C(C)(C)c5ccccc54)c4ccccc4C3(C)C)/CCC2)C(C)(C)c2ccccc21 [Example 77, 2,2′-((1E,1′E)-((3E,3′E)-(((2E,2′E)-((pentane-1,5-diylbis(azanediyl))bis(6-oxohexane-6,1-diyl))bis(3,3-dimethylindolin-1-yl-2-ylidene))bis(ethane-2,1-diylidene))bis(2-chlorocyclohex-1-en-1-yl-3-ylidene))bis(ethene-2,1-diyl))bis(1-ethyl-3,3-dimethyl-3H-indol-1-ium) Chloride] | 794.5 nm | 4.344 | 
